Data on 14 compounds can be found in US6586592B2, “Bis-arylsulfones” (Pharmacia & Upjohn Company, priority 2000, dated 2003).

For data set [1], the target named is T1, cloned human 5-HT6 receptor (Homo sapiens, UniProt P50406).
T1 construct: membrane preparation
Nature of the data set: 5-HT6 receptor binding assay ([3H]-LSD radioligand, SPA beads). The following applies: membranes of Hela cells containing cloned human 5-HT6 receptor, IC50 converted to Ki by Cheng-Prusoff. How it is done:
5-HT6 Receport Binding Assay
Growth of Cells and Membrane Preparation
Harvested intact cells are washed once in cold phosphate-buffered saline. The cells are pelleted and resuspended in 100 ml of cold 50 mM Tris, 5 mM EDTA and 5 mM EGTA, pH 7.4. Homogenization is with a Vir Tishear generator, 4 cycles for 30 seconds each at setting 50. The homogenized cells are centrifuged at 700 RPM (1000×g) for 10 minutes and the supernatant is removed. […] The rehomogenized cells are then centrifuged at 700 RPM (1000×g) for 10 minutes and the supernatant is removed. […] The membrane pellet is resupended in 50-8-ml of assay buffer containing HEPES 20 mM, MgCl2 10 mM, NaCl 150 mM, EDTA 1 mM, pH 7.4 and stored frozen in aliqouts at −70° C.
5-HT6 Receptor Binding Assay
The radioligand binding assay used [^3H]-lysergic acid diethylamide (LSD). The assay is carried out in Wallac 96-well sample plates by the addition of 11 μl of the test sample at the appropriate dilution (the assay employed 11 serial concentrations of samples run in duplicate), 11 μl of radioligand, and 178 μl of a washed mixture of WGA-coated SPA beads and membranes in binding buffer. The plates are shaken for about 5 minutes and then incubated at room temperature for 1 hour. The plates are then loaded into counting cassettes and counted in a Wallac MicroBeta Trilux scintillation counter.
Binding Constant (Ki) Determination
Eleven serial dilutions of test compounds are distributed to assay plates using the PE/Cetus Pro/Pette pipetter. These dilutions were, followed by radioligand and the bead-membrane mixture prepared as described above. The specifically bound cpm obtained are fit to a one-site binding model using GraphPad Prism ver. 2.0.

Structures can show the parent of a compound that is named as a salt.

Usually melting point stands for the temperature of the solid-liquid transition. As usually defined, the Ki is the dissociation constant of the complex between target and ligand, obtained from inhibition or displacement. Low values mean higher affinity, high ones lower affinity.

T1 sequence (P50406 whole entry): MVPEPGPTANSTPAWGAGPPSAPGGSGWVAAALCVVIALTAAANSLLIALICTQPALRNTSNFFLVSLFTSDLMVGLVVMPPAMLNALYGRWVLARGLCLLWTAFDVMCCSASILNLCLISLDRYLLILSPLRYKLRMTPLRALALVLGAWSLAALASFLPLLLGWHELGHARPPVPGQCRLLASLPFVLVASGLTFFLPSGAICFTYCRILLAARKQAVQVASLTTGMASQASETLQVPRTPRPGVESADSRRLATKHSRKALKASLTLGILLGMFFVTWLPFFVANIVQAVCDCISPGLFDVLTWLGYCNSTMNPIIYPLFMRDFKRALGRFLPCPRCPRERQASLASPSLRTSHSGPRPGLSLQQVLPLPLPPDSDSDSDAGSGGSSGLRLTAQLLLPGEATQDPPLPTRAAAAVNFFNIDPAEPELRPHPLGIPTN

`CNc1cc(N2CCCNCC2)ccc1S(=O)(=O)c1cccc(F)c1.Cl` came in with a melting point of 153 to 154 °C.

In turn, `Nc1cc(N2CCNCC2)ccc1S(=O)(=O)c1ccccc1` (as salt: salt) [Example 1, 2-(phenylsulfonyl)-5-(1-piperazinyl)phenylamine] gave a melting point of 165 to 166 °C.

On to `Nc1cc(N2CCNCC2)ccc1S(=O)(=O)c1ccccc1` [Example 1, 2-(phenylsulfonyl)-5-(1-piperazinyl)phenylamine], for which the Ki in data set [1] worked out at 2.6 nM.

For `Cl.Nc1cc(N2CCCNCC2)ccc1S(=O)(=O)c1cccc(F)c1` [Example 2, 5-(1,4-diazepan-1-yl)-2-[(3-fluorophenyl)sulfonyl]phenylamine], the melting point lay within 106 to 108 °C.

`Nc1cc(N2CCNCC2)ccc1S(=O)(=O)c1ccc(F)cc1` [Example 3, 2-[(4-fluorophenyl)sulfonyl]-5-(1-piperazinyl) Phenylamine]: the affinity in data set [1] corresponds to a Ki of 31 nM.

Regarding `CN1CCN(c2ccc(S(=O)(=O)c3ccc(F)cc3)c(N)c2)CC1.Cl` [Example 4, 2-[(4-fluorophenyl)sulfonyl]-5-(4-methyl-1-piperazinyl) Phenylamine], the melting point is 85 to 89 °C. For the same compound, in data set [1], the Ki turned out to be 32 nM.

Consider `Cc1ccc(S(=O)(=O)c2ccc(N3CCNCC3)cc2N)cc1` [Example 5, 2-[(4-methylphenyl)sulfonyl]-5-(1-piperazinyl) Phenylamine], for which the melting point was in the range of 102 to 106 °C. For the same compound, in data set [1], the Ki worked out at 23 nM.

Take `Cc1ccc(S(=O)(=O)c2ccc(N3CCN(C)CC3)cc2N)cc1` [Example 6, 2-[(4-methylphenyl)sulfonyl]-5-(4-methyl-1-piperazinyl) Phenylamine]: the melting point was 148 to 151 °C. For the same compound, the Ki in data set [1] is 68 nM.

`CN1CCN(c2ccc(S(=O)(=O)c3ccccc3)c(N)c2)CC1.Cl` [Example 7, 5-(4-methyl-1-piperazinyl)-2-(phenylsulfonyl) Phenylamine] came in with a melting point of 90 to 93 °C. This compound came in with a Ki in data set [1] of 3.6 nM.

Turning to `CN1CCN(c2ccc(S(=O)(=O)c3cccc(F)c3)c(N)c2)CC1.Cl` [Example 8, 2-[(3-fluorophenyl)sulfonyl]-5-(4-methyl-1-piperazinyl) Phenylamine], the melting point was 89 to 92 °C. Besides, the affinity in data set [1], expressed as Ki, was 5.2 nM.

Take `Nc1cc(N2CCCNCC2)ccc1S(=O)(=O)c1ccc(F)c(F)c1` [Example 9, 5-(1,4-diazepan-1-yl)-2-[(3,4-difluorophenyl)sulfonyl]phenylamine]: the affinity in data set [1], expressed as Ki, was 79 nM.

As to `Nc1cc(N2CCCNCC2)ccc1S(=O)(=O)c1ccccc1` [Example 10, 5-(1,4-diazepan-1-yl)-2-(phenylsulfonyl) Phenylamine], the Ki in data set [1] is 11 nM.

Consider `Nc1cc(N2CCCNCC2)ccc1S(=O)(=O)c1cc(F)cc(F)c1` [Example 11, 5-(1,4-diazepan-1-yl)-2-[(3,5-difluorophenyl)sulfonyl]phenylamine], for which the affinity in data set [1] corresponds to a Ki of 11 nM. That is a double-digit nanomolar value.

With `CCNc1cc(N2CCNCC2)ccc1S(=O)(=O)c1ccccc1.Cl` [Example 13, N-ethyl-2-(phenylsulfonyl)-5-(1-piperazinyl) Phenylamine], the melting point lay in the range of 121 to 123 °C.
